Experimental data published in patent publication US20150209315A1 (Cumberland Pharmaceuticals, priority 2009, published 2015).

Assays:
Assay type in all cases: in vivo, human
[1] = test system: patients undergoing orthopedic surgical procedures; experiment: Example 3: adverse events
Protocol: Patients were evaluated and compared for morphine requirements between the active doses and placebo using analysis of variance and covariance procedures at an overall alpha level of 0.05. Secondary efficacy parameters were also evaluated and compared among the treatment groups using appropriate statistical methods described in the statistical analysis section of the protocol. For the adverse events, instead of using an unadjusted Chi-square test and a Cochran-Mantel-Haenszel test adjusted for center to compare treatment groups with respect to the numbers of patients reporting AEs, a Fisher's exact test was used to compare treatment groups for any AE that was reported by five or more patients.

[2] = test system: post-operative adult patients; experiment: Example 2: adverse events; conditions: 800 mg
Protocol: Patients were evaluated and compared for morphine requirements between the active doses and placebo using analysis of variance and covariance procedures at an overall alpha level of 0.05. Secondary efficacy parameters were also evaluated and compared among the treatment groups using appropriate statistical methods described in the statistical analysis section of the protocol. Safety information was compared between the treatment groups using Chi-Square or Cochran-Mantel-Haenszel test. Demographic, background and baseline information among the treatment groups was also described.

[3] = test system: post-operative adult patients; experiment: Example 1: patient self-assessment of pain, VAS at rest; conditions: 400 mg
Protocol: Pain was measured by the patient's self-assessment using a Visual Analog Scale (VAS) from 0-10 with 0 being no pain and 10 being intense pain. This was measured both at rest and with movement. […] […] To account for the missing pain assessments, two missing value approaches as described in the statistical analysis plan were used to impute values. To determine the difference in overall pain at differing time-points, the area under the VAS pain curve during the first 24 hours, between 6 and 24 hours and between 12 and 24 hours were analyzed.

## CC(C)Cc1ccc(C(C)C(=O)O)cc1 (centres unmarked) [Ibuprofen, 2-(4-isobutylphenyl) propionic acid]
[1]; 800 mg
  deaths: no deaths reported
  incidence of serious adverse events vs placebo: no statistically significant difference
[1]; 800 mg vs placebo
  patients that experienced dyspepsia (treatment-emergent adverse events): significantly more patients in the placebo group
  patients that experienced vomiting (treatment-emergent adverse events): significantly more patients in the intravenous ibuprofen group
[2]
  patients experiencing adverse events or serious adverse events vs placebo: no significant differences in the number of patients experiencing adverse events or serious adverse events between groups
[3]; EEP, 1-Hour
  VAS Score measured at Rest (median): 7.0
  VAS Score measured at Rest, % Reduction vs Placebo: 0.0%
[3]; EEP, 2-Hour
  VAS Score measured at Rest (median): 6.1
  VAS Score measured at Rest, % Reduction vs Placebo: −3.4%
[3]; EEP, 3-Hour
  VAS Score measured at Rest (median): 5.0
  VAS Score measured at Rest, % Reduction vs Placebo: 0.0%
[3]; EEP, 6-Hour
  VAS Score measured at Rest (median): 4.0
  VAS Score measured at Rest, % Reduction vs Placebo: 0.0%
[3]; EEP, 9-Hour
  VAS Score measured at Rest (median): 3.0
[3]; EEP, 12-Hour
  VAS Score measured at Rest (median): 3.0
  VAS Score measured at Rest, % Reduction vs Placebo: 0.0%
[3]; EEP, 15-Hour
  VAS Score measured at Rest (median): 2.0
  VAS Score measured at Rest, % Reduction vs Placebo: 33.3%
[3]; EEP, 18-Hour
  VAS Score measured at Rest (median): 2.9
  VAS Score measured at Rest, % Reduction vs Placebo: 3.3%
[3]; EEP, 21-Hour
  VAS Score measured at Rest (median): 2.9
  VAS Score measured at Rest, % Reduction vs Placebo: 3.3%
[3]; EEP, 24-Hour
  VAS Score measured at Rest (median): 3.0
  VAS Score measured at Rest, % Reduction vs Placebo: 0.0%
[3]; EEP, 27-Hour
  VAS Score measured at Rest (median): 3.0
  VAS Score measured at Rest, % Reduction vs Placebo: 3.2%
[3]; EEP, 30-Hour
  VAS Score measured at Rest (median): 2.5
  VAS Score measured at Rest, % Reduction vs Placebo: 10.7%
[3]; EEP, 33-Hour
  VAS Score measured at Rest (median): 2.7
  VAS Score measured at Rest, % Reduction vs Placebo: 15.6%
[3]; EEP, 36-Hour
  VAS Score measured at Rest (median): 2.4
  VAS Score measured at Rest, % Reduction vs Placebo: 7.7%
[3]; EEP, 39-Hour
  VAS Score measured at Rest (median): 2.1
  VAS Score measured at Rest, % Reduction vs Placebo: −16.7%
[3]; EEP, 42-Hour
  VAS Score measured at Rest (median): 2.1
  VAS Score measured at Rest, % Reduction vs Placebo: −5.0%
[3]; EEP, 45-Hour
  VAS Score measured at Rest (median): 2.4
  VAS Score measured at Rest, % Reduction vs Placebo: −14.3%
[3]; EEP, 48-Hour
  VAS Score measured at Rest (median): 1.6
  VAS Score measured at Rest, % Reduction vs Placebo: −6.7%
[3]; ITT, 1-Hour
  VAS Score measured at Rest (median): 7.0
  VAS Score measured at Rest, % Reduction vs Placebo: 0.0%
[3]; ITT, 2-Hour
  VAS Score measured at Rest (median): 6.3
  VAS Score measured at Rest, % Reduction vs Placebo: −3.3%
[3]; ITT, 3-Hour
  VAS Score measured at Rest (median): 5.1
  VAS Score measured at Rest, % Reduction vs Placebo: −2.0%
[3]; ITT, 6-Hour
  VAS Score measured at Rest (median): 4.3
  VAS Score measured at Rest, % Reduction vs Placebo: −7.5%
[3]; ITT, 9-Hour
  VAS Score measured at Rest (median): 3.5
  VAS Score measured at Rest, % Reduction vs Placebo: 12.5%
[3]; ITT, 12-Hour
  VAS Score measured at Rest (median): 3.1
  VAS Score measured at Rest, % Reduction vs Placebo: −3.3%
[3]; ITT, 15-Hour
  VAS Score measured at Rest (median): 2.6
  VAS Score measured at Rest, % Reduction vs Placebo: 21.2%
[3]; ITT, 18-Hour
  VAS Score measured at Rest (median): 2.9
  VAS Score measured at Rest, % Reduction vs Placebo: 3.3%
[3]; ITT, 21-Hour
  VAS Score measured at Rest (median): 2.8
  VAS Score measured at Rest, % Reduction vs Placebo: 20.0%
[3]; ITT, 24-Hour
  VAS Score measured at Rest (median): 3.0
  VAS Score measured at Rest, % Reduction vs Placebo: 0.0%
[3]; ITT, 27-Hour
  VAS Score measured at Rest (median): 3.1
  VAS Score measured at Rest, % Reduction vs Placebo: −3.3%
[3]; ITT, 30-Hour
  VAS Score measured at Rest (median): 2.4
  VAS Score measured at Rest, % Reduction vs Placebo: 11.1%
[3]; ITT, 33-Hour
  VAS Score measured at Rest (median): 2.7
  VAS Score measured at Rest, % Reduction vs Placebo: 15.6%
[3]; ITT, 36-Hour
  VAS Score measured at Rest (median): 2.3
  VAS Score measured at Rest, % Reduction vs Placebo: 11.5%
[3]; ITT, 39-Hour
  VAS Score measured at Rest (median): 2.1
  VAS Score measured at Rest, % Reduction vs Placebo: −16.7%
[3]; ITT, 42-Hour
  VAS Score measured at Rest (median): 2.1
